US6218393A, “Anthranilic acid derivatives as multi drug resistance modulators” (priority 1997, dated 2001)

Columns and labels:
AR 1.0 cells [1] = test: Potentiation index with doxorubicin titration; type: cell-based, mouse; settings: for Potentiation Index at RMA concentration 10 nM: Table C1, RMA 10 nM; for Potentiation Index at RMA concentration 30 nM: Table C1, RMA 30 nM; for Potentiation Index at RMA concentration 50 nM: Table C1, RMA 50 nM; for Potentiation Index at RMA concentration 100 nM: Table C1, RMA 100 nM; for Potentiation Index at RMA concentration 20 nM: Table C1, RMA 20 nM
Protocol: The EMT6 mouse mammary carcinoma cell line and the MDR resistant subline AR 1.0 were cultured in RPMI 1640 medium containing 10% foetal calf serum and 2 mM glutamine at 37° C. in 5% CO2. Cells were passaged between 1 in 200 and 1 in 2000 in the case of the parental cell line and between 1 in 20 and 1 in 200 in the case of the MDR resistant subline, after trypsinisation (0.25% trypsin, 0.2 gl^-1, EDTA). […]
(b) Cells were cultured for four days with a titration of doxorubicin (0.263 nM-17.24 μM) in the presence of a fixed concentration of each compound. Proliferation was quantified as described by Skehen et al, loc cit. The IC50 (concentration required to reduce proliferation to 50% of the untreated controls) for doxorubicin alone and with each compound were derived and used to calculate the potentiation index (PI): [formula]

AR 1.0 cells [2] = test: Drug accumulation assay: daunorubicin accumulation in AR 1.0 cells; type: cell-based; settings: Mus musculus, 100% = accumulation with verapamil 100 μM, 1 hr, 37° C.
Protocol: The EMT6 mouse mammary carcinoma cell line and the MDR resistant subline AR 1.0 were cultured in RPMI 1640 medium containing 10% foetal calf serum and 2 mM glutamine at 37° C. in 5% CO2. Cells were passaged between 1 in 200 and 1 in 2000 in the case of the parental cell line and between 1 in 20 and 1 in 200 in the case of the MDR resistant subline, after trypsinisation (0.25% trypsin, 0.2 gl^-1, EDTA).
AR 1.0 cells were seeded 48 hours prior to assay into 96 well opaque culture plates (Canberra Packard).

Row | Compound | IC50 (AR 1.0 cells [2]) | Potentiation Index at RMA concentration 300 nM (AR 1.0 cells [1]; Table C2, RMA 300 nM) | Potentiation Index at RMA concentration 500 nM (AR 1.0 cells [1]; Table C2, RMA 500 nM) | Potentiation Index at RMA concentration 10 nM (AR 1.0 cells [1]) | Potentiation Index at RMA concentration 30 nM (AR 1.0 cells [1]) | Potentiation Index at RMA concentration 50 nM (AR 1.0 cells [1]) | Potentiation Index at RMA concentration 100 nM (AR 1.0 cells [1]) | Potentiation Index at RMA concentration 20 nM (AR 1.0 cells [1])
1 | COc1cc2c(cc1OC)CN(CCNC(=O)c1ccccc1NC(=O)c1ccc(-c3ccccc3)cc1)CC2 [compound 9294, Biphenyl-4-carboxylic acid {2-[2-(6,7-dimethoxy-3,4-dihydro-1H-isoquinolin-2-yl)-ethylcarbamoyl]-phenyl}-amide] | 400 nM | 18 | 71 |  |  |  |  | 
2 | COc1cc2c(cc1OC)CN(CCc1ccc(NC(=O)c3cc(N(C)C)ccc3NC(=O)c3cnc4ccccc4c3)cc1)CC2 [compound 9595, Quinoline-3-carboxylic acid (2-{4-[2-(6,7-dimethoxy-3,4-dihydro-1H-isoquinolin-2-yl)-ethyl]-phenylcarbamoyl}-4-dimethylamino-phenyl)-amide] | 370 nM |  |  | 1.45 | 1.93 | 2.99 | 45 | 
3 | COc1cc2c(cc1OC)CN(CCc1ccc(NC(=O)c3cccnc3NC(=O)c3cnc4ccccc4n3)cc1)CC2 [compound 9600, Quinoxaline-2-carboxylic acid (3-{4-[2-(6,7-dimethoxy-3,4-dihydro-1H-isoquinolin-2-yl)-ethyl]-phenylcarbamoyl}-pyridin-2-yl)-amide] | 199 nM |  |  |  |  | 1.98 | 2.55 | 
4 | COc1cc2c(cc1OC)CN(CCc1ccc(NC(=O)c3cc(SC)ccc3NC(=O)c3cnc4ccccc4c3)cc1)CC2 [compound 9615, Quinoline-3-carboxylic acid (2-{4-[2-(6,7-dimethoxy-3,4-dihydro-1H-isoquinolin-2-yl)-ethyl]-phenylcarbamoyl}-4-methylsulfanyl-phenyl)-amide] | 213 nM |  |  | 2 | 23 | 85 | 175 | 
5 | COc1cc2c(cc1OC)CN(CCc1ccc(NC(=O)c3cscc3NC(=O)c3cnc4ccccc4c3)cc1)CC2 [compound 9616, Quinoline-3-carboxylic acid (4-{4-[2-(6,7-dimethoxy-3,4-dihydro-1H-isoquinolin-2-yl)-ethyl]-phenylcarbamoyl}-thiophen-3-yl)-amide] | 113 nM |  |  | 13 | 142 | 143 | 185 | 
6 | COc1cc2c(cc1OC)CN(CCc1ccc(NC(=O)c3cscc3NC(=O)c3ccc(C)nc3)cc1)CC2 [compound 9617, N-(4-{4-[2-(6,7-Dimethoxy-3,4-dihydro-1H isoquinolin-2-yl)-ethyl]-phenylcarbamoyl}-thiophen-3-yl)-6-methyl-nicotinamide] | 203 nM |  |  | 1.5 | 4 | 15 | 81 | 
7 | COc1cc2c(cc1OC)CN(CCSc1ccc(NC(=O)c3ccccc3NC(=O)c3cnc4ccccc4c3)cc1)CC2 [compound 9621, Quinoline-3-carboxylic acid (2-{4-[2-(6,7-dimethoxy-3 ,4-dihydro-1H-isoquinolin-2-yl)-ethylsulfanyl]-phenylcarbamoyl}-phenyl)-amide] | 453 nM |  |  | 1.0 | 1.6 | 4.4 | 25 | 1.3
8 | COc1cc2c(cc1OC)CN(CCc1ccc(NC(=O)c3nccnc3NC(=O)c3cnc4ccccc4c3)cc1)CC2 [compound 9622, Quinoline-3-carboxylic acid (3-{4-[2-(6,7-dimethoxy-3,4-dihydro-1H-isoquinolin-2-yl)-ethyl]-phenylcarbamoyl}-pyrazin-2-yl)-amide] | 207 nM |  |  | 1.8 | 15 | 46 | 79 | 8
9 | COc1cc2c(cc1OC)C(C)N(CCc1ccc(NC(=O)c3ccccc3NC(=O)c3cnc4ccccc4c3)cc1)CC2 (stereo not drawn) [compound 9625, Quinoline-3-carboxylic acid (2-{4-[2-(6,7-dimethoxy-1-methyl-3,4-dihydro-1H-isoquinolin 2-yl)-ethyl]-phenylcarbamoyl}-phenyl)-amide] | 347 nM |  |  | 1 | 4 | 7 | 60 | 
10 | O=C(Nc1ccccc1C(=O)Nc1ccc(CCN2Cc3ccccc3C2)cc1)c1cnc2ccccc2c1 [compound 9626, Quinoline-3-carboxylic acid (2-{4-[2-(1,3-dihydro-isoindol-2-yl)-ethyl]-phenylcarbamoyl}-phenyl)-amide] | 278 nM |  |  | 1.2 | 4 | 8 | 27 | 
11 | COc1ccc(CCN(C)CCc2ccc(NC(=O)c3ccccc3NC(=O)c3cnc4ccccc4c3)cc2)cc1OC [compound 9630, Quinoline-3-carboxylic acid {2-[4-(2-{[2-(3,4-dimethoxy-phenyl)-ethyl]-methyl-amino}-ethyl)-phenylcarbamoyl]-phenyl}-amide] | 235 nM |  |  | 1 | 2 | 6 | 26 | 
12 | Cc1ccc(CN(C)CCc2ccc(NC(=O)c3ccccc3NC(=O)c3cnc4ccccc4c3)cc2)cc1C [compound 9631, Quinoline-3-carboxylic acid [2-(4-{2-[(3,4-dimethyl-benzyl)-methyl-amino]-ethyl}-phenylcarbatnoyl)-phenyl]-amide] | 669 nM |  |  | 1 | 9 | 20 | 67 | 

Continued, in another order:

Row | IC50 (AR 1.0 cells [2]) | Compound | Potentiation Index at RMA concentration 300 nM (AR 1.0 cells [1]; Table C2, RMA 300 nM) | Potentiation Index at RMA concentration 500 nM (AR 1.0 cells [1]; Table C2, RMA 500 nM) | Potentiation Index at RMA concentration 10 nM (AR 1.0 cells [1]) | Potentiation Index at RMA concentration 30 nM (AR 1.0 cells [1]) | Potentiation Index at RMA concentration 50 nM (AR 1.0 cells [1]) | Potentiation Index at RMA concentration 100 nM (AR 1.0 cells [1]) | Potentiation Index at RMA concentration 20 nM (AR 1.0 cells [1])
13 | 343 nM | COc1cc(CCN2CCc3cc(OC)c(OC)cc3C2)ccc1NC(=O)c1ccccc1NC(=O)c1cnc(C)cn1 [compound 9657, 5-Methyl-pyrazine-2-carboxylic acid (2-{4-[2-(6,7-dimethoxy-3,4-dihydro-1H-isoquinolin-2-yl)-ethyl]-2-methoxy-phenylcarbamoyl}-phenyl)-amide] |  |  |  |  |  |  | 
14 | 2900 nM | COc1cc2c(cc1OC)CN(CCc1ccc(NC(=O)c3ccccc3NC(=O)c3cnccn3)c(C)c1)CC2 [compound 9658, Pyrazine-2-carboxylic acid (2-{4-[2-(6,7-dimethoxy-3,4-dihydro-1H-isoquinolin-2-yl)-ethyl]2-methyl-phenylcarbamoyl}-phenyl)-amide] |  |  |  |  |  |  | 
15 | 1380 nM | COc1cc(CCN2CCc3cc(OC)c(OC)cc3C2)ccc1NC(=O)c1ccccc1NC(=O)c1cnccn1 [compound 9659, Pyrazine-2-carboxylic acid (2-{4-[2-(6,7-dimethoxy-3,4-dihydro-1H-isoquinolin-2-yl)-ethyl]-2-methoxy-phenylcarbamoyl}-phenyl)-amide] |  |  |  |  |  |  | 
16 | 8670 nM | COc1cc2c(cc1OC)CN(CCc1ccc(NC(=O)c3sc4nccnc4c3NC(=O)c3cnc4ccccc4c3)cc1)CC2 [compound 9666, Quinoline-3-carboxylic acid (6-{4-[2-(6,7-dimethoxy-3,4-dihydro-1H-isoquinolin-2-yl)-ethyl]-phenylcarbamoyl}-thieno[2,3-b]pyrazin-7-yl)-amide] |  |  |  |  |  |  | 
17 | 76 nM | COc1ccc(CN(C)CCc2ccc(NC(=O)c3cc(F)c(F)cc3NC(=O)c3cnc4ccccc4c3)cc2)cc1OC [compound 9667, Quinoline-3-carboxylic acid [2-(4-{2-[(3,4-dimethoxy-benzyl)-methyl-amino]-ethyl}-phenylcarbamoyl)-4,5-difiuoro-phenyl]-amide] |  |  |  |  |  |  | 
18 | 87 nM | COc1ccc(CN(C)CCc2ccc(NC(=O)c3ccc(C)cc3NC(=O)c3cnc4ccccc4c3)cc2)cc1OC [compound 9668] |  |  |  |  |  |  | 
19 | 469 nM | COc1ccc(CN(CCc2ccc(NC(=O)c3ccccc3NC(=O)c3cnc4ccccc4c3)cc2)C(C)C)cc1OC [compound 9669, Quinoline-3-carboxylic acid [2-(4-{2-[(3,4-dimethoxy-benzyl)-isopropyl-amino]-ethyl}-phenylcarbamoyl)-phenyl]-amide] |  |  |  |  |  |  | 
20 | 169 nM | COc1ccc(CN(C)CCc2ccc(NC(=O)c3ccc([N+](=O)[O-])cc3NC(=O)c3cnc4ccccc4c3)cc2)cc1OC [compound 9677, Quinoline-3-carboxylic acid [2-(4-{2-[(3,4-dimethoxy-benzyl)-methyl-amino]-ethyl}-phenylcarbamoyl)-5-nitro-phenyl]-amide] |  |  |  |  |  |  | 
